Laboratory results reported in patent US7153930B1, “Peptide transport” (priority 1999, dated 2006).
Non-standard residues stand in square brackets, D forms with d. Residues, ends and D or L forms follow the SMILES beside them. *: point of attachment. Cholyl = C[C@H](CCC(=O)*)[C@H]1CC[C@H]2[C@@H]3[C@H](O)C[C@@H]4C[C@H](O)CC[C@]4(C)[C@H]3C[C@H](O)[C@]12C; pGlu = O=C1CC[C@@H](C(=O)O)N1

Columns and labels:
gastric acid secretion [1] = test: Gastric acid secretion in anaesthetized rats after I.V., intra-ileal or jejunal administration of gastrin peptides (back titration of HCl); conditions: for increase in gastric acid secretion with respect to baseline: P=0.001; for effect on gastric acid secretion: unconjugated gastrin without prior injection of the respective conjugate; for absorption across the ileal wall into the circulation: cholate conjugated form introduced into the ileum; for stimulation of the peak gastric acid secretion: 5 rats
Protocol: (§1) Experiments were carried out on male Wistar rats of 250–350 g, which had been starved overnight, and which were anaesthetized with an I.P. injection of Sagatal (pentobarbitone sodium, obtainable from Rhône Mérieux, Harlow Essex, UK) of dosage appropriate to the body weight. The criterion for anaesthesia was abolition of the hind limb flexor withdrawal reflex. The following surgical procedures were then carried out: tracheostomy to allow artificial ventilation if required, cannulation of the carotid artery to monitor blood pressure, cannulation of the external jugular vein to allow for the slow bolus infusion of drugs, intubation of the stomach at the pyloro-duodenal junction after ligation of the oesophagus to measure gastric acid secretion, cannulation of the terminal ileum and/or of the proximal jejunum distal to the ligament of Treitz for infusion of peptide hormones.
(§2) Gastric acid secretion was measured by the following method. 1.0 ml of glycine/mannitol buffer (1 part glycine (0.3M) and 4 parts D-mannitol (0.3M) adjusted to pH 6.5) was instilled into the stomach and left for 15 min when withdrawal was made. The HCl secreted was determined by back titration with 10 mM NaOH to pH 6.5.
(§3) The data are expressed as the mean±S.D. μmol HCl secreted by the stomach over the stated time period in response to the experimental procedure.

gastric acid secretion [2] = conditions: rat, in vivo
Protocol: as §1, §2, §3

CSCC[C@H](NC(=O)[C@@H](N)Cc1c[nH]c2ccccc12)C(=O)N[C@@H](CC(=O)O)C(=O)N[C@@H](Cc1ccccc1)C(N)=O [G4, Trp-Met-Asp-Phe amide]
increase in gastric acid secretion with respect to baseline (gastric acid secretion [1]; first intravenous injection (start of experiment)): 0.42±0.10 μmol 15 min^1 | fall in the mean gastric acid level (gastric acid secretion [1]; ileal infusion, 2500 μg kg^−1 in 1.0 ml isotonic saline, 6 experiments, P=0.043): 0.23 ± 0.21 µmol/h | increase in gastric acid secretion with respect to baseline (gastric acid secretion [1]; second intravenous injection (end of experiment)): 0.50±0.14 μmol 15 min^1 | effect on gastric acid secretion (gastric acid secretion [1]): without effect on gastric acid secretion | absorption from the upper jejunum (gastric acid secretion [2]): lack of absorption | absorption of unconjugated gastrin (gastric acid secretion [2]): absorption of the unconjugated gastrin occurred

CSCC[C@H](NC(=O)[C@H](Cc1c[nH]c2ccccc12)NC(=O)CC[C@@H](C)[C@H]1CC[C@H]2[C@@H]3[C@H](O)C[C@@H]4C[C@H](O)CC[C@]4(C)[C@H]3C[C@H](O)[C@]12C)C(=O)N[C@@H](CC(=O)O)C(=O)N[C@@H](Cc1ccccc1)C(N)=O [G4-CA, cholate-Trp-Met-Asp-Phe amide]
absorption across the ileal wall into the circulation (gastric acid secretion [1]): absorption of the conjugated gastrin across the ileal wall into the circulation occurred

CSCC[C@H](NC(=O)[C@H](Cc1c[nH]c2ccccc12)NC(=O)CNC(=O)[C@H](Cc1ccc(O)cc1)NC(=O)[C@H](C)NC(=O)[C@H](CCC(=O)O)NC(=O)[C@H](CCC(=O)O)NC(=O)[C@H](CCC(=O)O)NC(=O)CC[C@@H](C)[C@H]1CC[C@H]2[C@@H]3[C@H](O)C[C@@H]4C[C@H](O)CC[C@]4(C)[C@H]3C[C@H](O)[C@]12C)C(=O)N[C@@H](CC(=O)O)C(=O)N[C@@H](Cc1ccccc1)C(N)=O [G10-CA, cholate-Glu-Glu-Glu-Ala-Tyr-Gly-Trp-Met-Asp-Phe-amide] (Cholyl-EEEAYGWMDF-NH2)
absorption across the ileal wall into the circulation (gastric acid secretion [1]): absorption of the conjugated gastrin across the ileal wall into the circulation occurred

CC[C@H](C)[C@H](NC(=O)[C@H](Cc1ccccc1)NC(=O)[C@H](Cc1c[nH]cn1)NC(=O)[C@H](CCC(N)=O)NC(=O)[C@@H]1CCCN1C(=O)CNC(=O)[C@H](CCC(N)=O)NC(=O)[C@@H]1CCCN1C(=O)CNC(=O)[C@H](CC(C)C)NC(=O)[C@H](CCC(=O)O)NC(=O)CC[C@@H](C)[C@H]1CC[C@H]2[C@@H]3[C@H](O)C[C@@H]4C[C@H](O)CC[C@]4(C)[C@H]3C[C@H](O)[C@]12C)C(=O)N[C@@H](C)C(=O)N[C@@H](CC(=O)O)C(=O)N[C@@H](CC(C)C)C(=O)N[C@@H](CO)C(=O)N[C@@H](CCCCN)C(=O)N[C@@H](CCCCN)C(=O)N[C@@H](CCC(N)=O)C(=O)N[C@@H](CCCNC(=N)N)C(=O)N1CCC[C@H]1C(=O)N1CCC[C@H]1C(=O)N[C@@H](CCSC)C(=O)N[C@@H](CCC(=O)O)C(=O)N[C@@H](CCC(=O)O)C(=O)N[C@@H](CCC(=O)O)C(=O)N[C@@H](CCC(=O)O)C(=O)N[C@@H](CCC(=O)O)C(=O)N[C@@H](C)C(=O)N[C@@H](Cc1ccc(O)cc1)C(=O)NCC(=O)N[C@@H](Cc1c[nH]c2ccccc12)C(=O)N[C@@H](CCSC)C(=O)N[C@@H](CC(=O)O)C(=O)N[C@@H](Cc1ccccc1)C(N)=O [G34-CA] (Cholyl-ELGPQGPQHFIADLSKKQRPPMEEEEEAYGWMDF-NH2)
absorption across the ileal wall into the circulation (gastric acid secretion [1]): absorption of the conjugated gastrin across the ileal wall into the circulation occurred

H-EEEAYGWMDF-NH2 [G10, H-Glu-Glu-Glu-Ala-Tyr-GlyTrp-Met-Asp-Phe-amide]
stimulation of the peak gastric acid secretion (gastric acid secretion [1]; I.V. 36 μg kg^−1, initial injection, P=0.036): 1.28 ± 0.93 µmol | stimulation of the peak gastric acid secretion (gastric acid secretion [1]; I.V. 36 μg kg^−1, second injection at the end of the experiment, P=0.048): 1.45 ± 1.15 µmol | change in gastric acid secretion (gastric acid secretion [1]; infusion into the ileum, 6600 μg kg^−1 in 1.0 ml, not significant (P=0.23)): −1.22±1.93 μmol 180 min^−1 | effect on gastric acid secretion (gastric acid secretion [1]): without effect on gastric acid secretion | absorption of unconjugated gastrin (gastric acid secretion [2]): absorption of the unconjugated gastrin occurred

pGlu-Leu-Gly-Pro-Gln-Gly-Pro-Gln-His-Phe-Ile-Ala-Asp-Leu-Ser-Lys-Lys-Gln-Arg-Pro-Pro-Met-Glu-Glu-Glu-Glu-Glu-Ala-Tyr-GlyTrp-Met-Asp-Phe-NH2 ([pGlu]LGPQGPQHFIADLSKKQRPPMEEEEEAYGWMDF-NH2; ends and bridges not checked) [G34]
stimulation of the peak gastric acid secretion (gastric acid secretion [1]; I.V. 10 ng kg^−1, second injection at the end of the experiment, P=0.0005): 0.23 ± 0.051 µmol | stimulation of the peak gastric acid secretion (gastric acid secretion [1]; I.V. near threshold dose 10 ng kg^−1, initial injection, P=0.0008): 0.14 ± 0.034 µmol | change in mean gastric acid secretion (gastric acid secretion [1]; infusion into the ileum, 10.5 mg kg^−1 in 1.0 ml, not significant (P=0.16)): 0.202±0.262 μmol 180 min^−1 | mean increase in gastric acid secretion (gastric acid secretion [1]; intraileal infusion of G34 subsequent to intraileal infusion of G34-CA, 4 rats, P=0.004): 5.68±1.38 μmol 180 min^−1 | effect on gastric acid secretion (gastric acid secretion [1]): without effect on gastric acid secretion | absorption of unconjugated gastrin (gastric acid secretion [2]): absorption of the unconjugated gastrin occurred
